Values belong to the molecule of their own block, whether it stands above or below them.
Test system: 323965-272-R-J2-PDC complex spheroid viability
Test: Anticancer human tumor 323965-272-R-J2-PDC patient-derived pancreatic carcinoma cell line growth inhibition [CLK]
Conditions: for IC50: curve of first compound; for viability, T/C: stronger effect = lower value
How it was run: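 Multi-cell-type spheroids combined patient-derived tumor cells with HUVEC endothelial cells and human mesenchymal stem cells. Paired agents were dosed in half-log steps down from about clinical Cmax, or from 10 microM where Cmax was unknown.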

[1] = second compound 0.0316 µM, first compound 0.0316 µM
[2] = second compound 0.0316 µM, first compound 0.1 µM
[3] = second compound 0.0316 µM, first compound 0.316 µM
[4] = second compound 0.0316 µM, first compound 1 µM
[5] = second compound 0.0316 µM, first compound 3.16 µM
[6] = second compound 0.0316 µM, first compound 10 µM
[7] = second compound 0.1 µM, first compound 0.0316 µM
[8] = second compound 0.1 µM, first compound 0.1 µM
[9] = second compound 0.1 µM, first compound 0.316 µM
[10] = second compound 0.1 µM, first compound 1 µM
[11] = second compound 0.1 µM, first compound 3.16 µM
[12] = second compound 0.1 µM, first compound 10 µM
[13] = second compound 0.316 µM, first compound 0.0316 µM
[14] = second compound 0.316 µM, first compound 0.1 µM
[15] = second compound 0.316 µM, first compound 0.316 µM
[16] = second compound 0.316 µM, first compound 1 µM
[17] = second compound 0.316 µM, first compound 3.16 µM
[18] = second compound 0.316 µM, first compound 10 µM
[19] = second compound 1 µM, first compound 0.0316 µM
[20] = second compound 1 µM, first compound 0.1 µM
[21] = second compound 1 µM, first compound 0.316 µM
[22] = second compound 1 µM, first compound 1 µM
[23] = second compound 1 µM, first compound 3.16 µM
[24] = second compound 1 µM, first compound 10 µM
[25] = second compound 3.16 µM, first compound 0.0316 µM
[26] = second compound 3.16 µM, first compound 0.1 µM
[27] = second compound 3.16 µM, first compound 0.316 µM
[28] = second compound 3.16 µM, first compound 1 µM
[29] = second compound 3.16 µM, first compound 3.16 µM
[30] = second compound 3.16 µM, first compound 10 µM
[31] = second compound 10 µM, first compound 0.0316 µM
[32] = second compound 10 µM, first compound 0.1 µM
[33] = second compound 10 µM, first compound 0.316 µM
[34] = second compound 10 µM, first compound 1 µM
[35] = second compound 10 µM, first compound 3.16 µM
[36] = second compound 10 µM, first compound 10 µM
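Note: spheroids exposed to agents for seven days before readout.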
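Throughout, for viability, T/C: percent of DMSO vehicle control wells so 100% = untreated growth.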

SMILES: COC1C=CCC(C)C(C)S(=O)(=O)NC(=O)c2ccc3c(c2)N(CC2CCC21)CC1(CCCc2cc(Cl)ccc21)CO3 (centres undefined) + CN1CCN(c2cc(C(=O)Nc3cc4cc(-c5cnn(C)c5)ccc4cn3)ccn2)CC1
IC50 (second compound 0.0316 µM): 841 nM | IC50 (second compound 0.1 µM): 456 nM | IC50 (second compound 0.316 µM): < 31.6 nM | IC50 (second compound 1 µM): < 31.6 nM | IC50 (second compound 3.16 µM): < 31.6 nM | IC50 (second compound 10 µM): < 31.6 nM | viability, T/C [1]: 97.8% | viability, T/C [2]: 92.1% | viability, T/C [3]: 62% | viability, T/C [4]: 47.8% | viability, T/C [5]: 30% | viability, T/C [6]: 12.3% | viability, T/C [7]: 72.5% | viability, T/C [8]: 67% | viability, T/C [9]: 53.5% | viability, T/C [10]: 39.1% | viability, T/C [11]: 28.9% | viability, T/C [12]: 10.4% | viability, T/C [13]: 27.5% | viability, T/C [14]: 26.2% | viability, T/C [15]: 21.1% | viability, T/C [16]: 17.7% | viability, T/C [17]: 15.1% | viability, T/C [18]: 9.86% | viability, T/C [19]: 3.35% | viability, T/C [20]: 4.19% | viability, T/C [21]: 4.18% | viability, T/C [22]: 3.31% | viability, T/C [23]: 1.96% | viability, T/C [24]: 2.43% | viability, T/C [25]: 3.51% | viability, T/C [26]: 3.78% | viability, T/C [27]: 3.33% | viability, T/C [28]: 3.25% | viability, T/C [29]: 2.59% | viability, T/C [30]: 2.44% | viability, T/C [31]: 5.25% | viability, T/C [32]: 3.97% | viability, T/C [33]: 3.84% | viability, T/C [34]: 3.47% | viability, T/C [35]: 2.83% | viability, T/C [36]: 2.37%

IC50 (second compound 0.0316 µM): 5450 nM | IC50 (second compound 0.1 µM): 6500 nM | IC50 (second compound 0.316 µM): 2410 nM | IC50 (second compound 1 µM): 1110 nM | IC50 (second compound 3.16 µM): < 31.6 nM | IC50 (second compound 10 µM): < 31.6 nM
SMILES: Nc1ccccc1NC(=O)c1ccc(CNC(=O)OCc2cccnc2)cc1 + CNC(=O)c1ccc(Nc2nc(OC3CCCC3)c3c(-c4ccc5nc(C)oc5c4)c[nH]c3n2)c(OC)c1
viability, T/C [1]: 112% | viability, T/C [2]: 113% | viability, T/C [3]: 118% | viability, T/C [4]: 93.5% | viability, T/C [5]: 58.4% | viability, T/C [6]: 41.4% | viability, T/C [7]: 90.3% | viability, T/C [8]: 89% | viability, T/C [9]: 98.3% | viability, T/C [10]: 92.2% | viability, T/C [11]: 62.1% | viability, T/C [12]: 42.8% | viability, T/C [13]: 67.2% | viability, T/C [14]: 69.2% | viability, T/C [15]: 72.6% | viability, T/C [16]: 75.3% | viability, T/C [17]: 43.4% | viability, T/C [18]: 28.8% | viability, T/C [19]: 62.4% | viability, T/C [20]: 57.5% | viability, T/C [21]: 58.7% | viability, T/C [22]: 51.7% | viability, T/C [23]: 35.3% | viability, T/C [24]: 26.2% | viability, T/C [25]: 50.7% | viability, T/C [26]: 47.7% | viability, T/C [27]: 49.8% | viability, T/C [28]: 44% | viability, T/C [29]: 32.2% | viability, T/C [30]: 25.5% | viability, T/C [31]: 41% | viability, T/C [32]: 47.3% | viability, T/C [33]: 47.1% | viability, T/C [34]: 37.5% | viability, T/C [35]: 31.2% | viability, T/C [36]: 25.7%
